Laboratory results from patent publication US11666050B2, “Enhancing the antimicrobial activity of biocides with polymers” (BASF SE, priority 2012, dated 2023).

Experiments:
Assay type in all cases: cell-based
[1] = tested on: Pseudomonas aeruginosa ATCC 15442; test: Bactericidal activity, method EN1040 (Example 1, Table 1); conditions: biocide alone; for log redn. after contact time 1 hr: contact time 1 hr; for log redn. after contact time 3 hrs: contact time 3 hrs; for log redn. after contact time 6 hrs: contact time 6 hrs; for log redn. after contact time 24 hrs: contact time 24 hrs
Source text: (§1) Lines in grey shading indicate control sample (no PEI or no biocide added): […]

[2] = tested on: Staphylococcus aureus ATCC 6538; test: Bactericidal activity, method EN1040 (Example 1, Table 2); conditions: biocide alone; for log redn. after contact time 1 hr: contact time 1 hr; for log redn. after contact time 3 hrs: contact time 3 hrs; for log redn. after contact time 6 hrs: contact time 6 hrs; for log redn. after contact time 24 hrs: contact time 24 hrs
Source text: as §1

[3] = tested on: Staphylococcus aureus ATCC 6538; test: Bactericidal activity, method EN1276 (Example 1, Table 3); conditions: biocide 250 ppm a.i., no PEI (control), S. aureus ATCC 6538
Source text: as §1

SMILES: O=[N+]([O-])C(Br)(CO)CO [Bronopol, 2-Bromo-2-nitropropane-1,3-diol]
- log redn. after contact time 1 hr ([1]; 0.1% a.i.): <1 log
- log redn. after contact time 3 hrs ([1]; 0.1% a.i.): <1 log
- log redn. after contact time 6 hrs ([1]; 0.1% a.i.): 4.2 log
- log redn. after contact time 24 hrs ([1]; 0.1% a.i.): 2.4 log
- log redn. after contact time 1 hr ([2]; 0.1% a.i.): <1 log
- log redn. after contact time 3 hrs ([2]; 0.1% a.i.): <1 log
- log redn. after contact time 6 hrs ([2]; 0.1% a.i.): <1 log
- log redn. after contact time 24 hrs ([2]; 0.1% a.i.): 2.4 log

SMILES: Oc1cc(Cl)ccc1Oc1ccc(Cl)cc1 [Tinosan® HP 100, Hydroxydichlorodiphenyl Ether]
- log redn. after Contact time 5 min [3]: 4.9 log redn.

SMILES: OCCOc1ccccc1 [phenoxyethanol, 2-Phenoxyethanol]
- log redn. after contact time 1 hr ([1]; 1% a.i.): <1 log
- log redn. after contact time 3 hrs ([1]; 1% a.i.): 1.3 log
- log redn. after contact time 6 hrs ([1]; 1% a.i.): 2.8 log
- log redn. after contact time 24 hrs ([1]; 1% a.i.): >6 log
- log redn. after contact time 1 hr ([2]; 1% a.i.): <1 log
- log redn. after contact time 3 hrs ([2]; 1% a.i.): <1 log
- log redn. after contact time 6 hrs ([2]; 1% a.i.): <1 log
- log redn. after contact time 24 hrs ([2]; 1% a.i.): 1.1 log
